{
  "source": "ChEMBL document CHEMBL3045943",
  "about": "“Novel N-aryl(alkaryl)-2-[(3-R-2-oxo-2H-[1,2,4]triazino[2,3-c]quinazoline-6-yl)thio]acetamides: synthesis, cytotoxicity, anticancer activity, COMPARE analysis and docking” (2013)",
  "type_in_all_cases": "functional",
  "key": {"UACC-257": {"system": "UACC-257", "assay": "Cytotoxicity against Homo sapiens (human) UACC257 cells assessed as cell growth at 10 uM after 48 hr by SRB assay relative to control", "conditions": "UACC-257, 48 h, read-out: Activity"}, "[1]": {"system": "Photobacterium leiognathi", "assay": "Growth inhibition of Photobacterium leiognathi Sh1 assessed as bio-luminescence at 0.25 mg/ml after 16 to 18 hr by chronic action test relative to control", "set-up": "scale not given: the % may be the effect or the level left"}, "PC-3": {"system": "PC-3", "assay": "Cytotoxicity against Homo sapiens (human) PC3 cells assessed as cell growth at 10 uM after 48 hr by SRB assay relative to control", "conditions": "PC-3, 48 h, read-out: Activity"}, "BT-549": {"system": "BT-549", "assay": "Cytotoxicity against Homo sapiens (human) BT549 cells assessed as cell growth at 10 uM after 48 hr by SRB assay relative to control", "conditions": "BT-549, 48 h, read-out: Activity"}, "NCI-H460": {"system": "NCI-H460", "assay": "Cytotoxicity against Homo sapiens (human) NCI-H460 cells assessed as cell growth at 10 uM after 48 hr by SRB assay relative to control", "conditions": "NCI-H460, 48 h, read-out: Activity"}, "SK-MEL-5": {"system": "SK-MEL-5", "assay": "Cytotoxicity against Homo sapiens (human) SK-MEL-5 cells assessed as cell growth at 10 uM after 48 hr by SRB assay relative to control", "conditions": "SK-MEL-5, 48 h, read-out: Activity"}, "UO-31": {"system": "UO-31", "assay": "Cytotoxicity against Homo sapiens (human) UO31 cells assessed as cell growth at 10 uM after 48 hr by SRB assay relative to control", "conditions": "UO-31, 48 h, read-out: Activity"}, "RXF 393": {"system": "RXF 393", "assay": "Cytotoxicity against Homo sapiens (human) RXF393 cells assessed as cell growth at 10 uM after 48 hr by SRB assay relative to control", "conditions": "RXF 393, 48 h, read-out: Activity"}, "[2]": {"system": "Photobacterium leiognathi", "assay": "Growth inhibition of Photobacterium leiognathi Sh1 assessed as bio-luminescence at 0.1 mg/ml after 16 to 18 hr by chronic action test relative to control", "set-up": "scale not given: the % may be the effect or the level left"}, "LOX IMVI": {"system": "LOX IMVI", "assay": "Cytotoxicity against Homo sapiens (human) LOXIMVI cells assessed as cell growth at 10 uM after 48 hr by SRB assay relative to control", "conditions": "read-out: Activity"}, "MDA-MB-231": {"system": "MDA-MB-231", "assay": "Cytotoxicity against Homo sapiens (human) MDA-MB-231 cells assessed as cell growth at 10 uM after 48 hr by SRB assay relative to control", "conditions": "MDA-MB-231, 48 h, read-out: Activity"}, "SR": {"system": "SR", "assay": "Cytotoxicity against Homo sapiens (human) SR cells assessed as cell growth at 10 uM after 48 hr by SRB assay relative to control", "conditions": "read-out: Activity"}, "786-0": {"system": "786-0", "assay": "Cytotoxicity against Homo sapiens (human) 786-0 cells assessed as cell growth at 10 uM after 48 hr by SRB assay relative to control", "conditions": "786-0, 48 h, read-out: Activity"}, "[3]": {"system": "Photobacterium leiognathi", "assay": "Growth inhibition of Photobacterium leiognathi Sh1 assessed as bio-luminescence at 0.025 mg/ml after 16 to 18 hr by chronic action test relative to control", "set-up": "scale not given: the % may be the effect or the level left"}, "SF-539": {"system": "SF-539", "assay": "Cytotoxicity against Homo sapiens (human) SF539 cells assessed as cell growth at 10 uM after 48 hr by SRB assay relative to control", "conditions": "SF-539, 48 h, read-out: Activity"}, "A498": {"system": "A498", "assay": "Cytotoxicity against Homo sapiens (human) A498 cells assessed as cell growth at 10 uM after 48 hr by SRB assay relative to control", "conditions": "A498, 48 h, read-out: Activity"}, "[4]": {"system": "Photobacterium leiognathi", "assay": "Growth inhibition of Photobacterium leiognathi Sh1 assessed as bio-luminescence at 0.1 mg/ml after 10 min by acute action test relative to control", "set-up": "scale not given: the % may be the effect or the level left"}, "OVCAR-8": {"system": "OVCAR-8", "assay": "Cytotoxicity against Homo sapiens (human) OVCAR8 cells assessed as cell growth at 10 uM after 48 hr by SRB assay relative to control", "conditions": "OVCAR-8, 48 h, read-out: Activity"}, "U-251": {"system": "U-251", "assay": "Cytotoxicity against Homo sapiens (human) U251 cells assessed as cell growth at 10 uM after 48 hr by SRB assay relative to control", "conditions": "U-251, 48 h, read-out: Activity"}, "SN12C": {"system": "SN12C", "assay": "Cytotoxicity against Homo sapiens (human) SN12C cells assessed as cell growth at 10 uM after 48 hr by SRB assay relative to control", "conditions": "read-out: Activity"}, "[5]": {"system": "Photobacterium leiognathi", "assay": "Growth inhibition of Photobacterium leiognathi Sh1 assessed as bio-luminescence at 0.025 mg/ml after 10 min by acute action test relative to control", "set-up": "scale not given: the % may be the effect or the level left"}, "SNB-75": {"system": "SNB-75", "assay": "Cytotoxicity against Homo sapiens (human) SNB75 cells assessed as cell growth at 10 uM after 48 hr by SRB assay relative to control", "conditions": "SNB-75, 48 h, read-out: Activity"}, "[6]": {"system": "Photobacterium leiognathi", "assay": "Growth inhibition of Photobacterium leiognathi Sh1 assessed as bio-luminescence at 0.25 mg/ml after 10 min by acute action test relative to control", "set-up": "scale not given: the % may be the effect or the level left"}, "HT-29": {"system": "HT-29", "assay": "Cytotoxicity against Homo sapiens (human) HT-29 cells assessed as cell growth at 10 uM after 48 hr by SRB assay relative to control", "conditions": "HT-29, 48 h, read-out: Activity"}, "ACHN": {"system": "ACHN", "assay": "Cytotoxicity against Homo sapiens (human) ACHN cells assessed as cell growth at 10 uM after 48 hr by SRB assay relative to control", "conditions": "read-out: Activity"}, "[7]": {"assay": "Cytotoxicity against Homo sapiens (human) NCI-ADR-RES cells assessed as cell growth at 10 uM after 48 hr by SRB assay relative to control", "conditions": "read-out: Activity"}, "HOP-92": {"system": "HOP-92", "assay": "Cytotoxicity against Homo sapiens (human) HOP92 cells assessed as cell growth at 10 uM after 48 hr by SRB assay relative to control", "conditions": "HOP-92, 48 h, read-out: Activity"}, "MCF7": {"system": "MCF7", "assay": "Cytotoxicity against Homo sapiens (human) MCF7 cells assessed as cell growth at 10 uM after 48 hr by SRB assay relative to control", "conditions": "MCF7, 48 h, read-out: Activity"}, "OVCAR-4": {"system": "OVCAR-4", "assay": "Cytotoxicity against Homo sapiens (human) OVCAR4 cells assessed as cell growth at 10 uM after 48 hr by SRB assay relative to control", "conditions": "OVCAR-4, 48 h, read-out: Activity"}, "HCT-116": {"system": "HCT-116", "assay": "Cytotoxicity against Homo sapiens (human) HCT116 cells assessed as cell growth at 10 uM after 48 hr by SRB assay relative to control", "conditions": "HCT-116, 48 h, read-out: Activity"}, "MDA-MB-435": {"system": "MDA-MB-435", "assay": "Cytotoxicity against Homo sapiens (human) MDA-MB-435 cells assessed as cell growth at 10 uM after 48 hr by SRB assay relative to control", "conditions": "MDA-MB-435, 48 h, read-out: Activity"}, "Malme-3M": {"system": "Malme-3M", "assay": "Cytotoxicity against Homo sapiens (human) MALME-3M cells assessed as cell growth at 10 uM after 48 hr by SRB assay relative to control", "conditions": "read-out: Activity"}, "Hs-578T": {"system": "Hs-578T", "assay": "Cytotoxicity against Homo sapiens (human) Hs 578T cells assessed as cell growth at 10 uM after 48 hr by SRB assay relative to control", "conditions": "read-out: Activity"}},
  "data": [
    {"smiles": "Cc1ccc(CNC(=O)CSc2nc3ccccc3c3nc(=O)c(-c4ccccc4)nn23)cc1", "values": [
      {"measurement": "growth at 10 µM", "setting": "UACC-257", "result": 71.1, "unit": "%"},
      {"measurement": "Activity", "setting": "[1]", "result": 140, "unit": "%"},
      {"measurement": "growth at 10 µM", "setting": "PC-3", "result": 83, "unit": "%"},
      {"measurement": "growth at 10 µM", "setting": "BT-549", "result": 26.9, "unit": "%"},
      {"measurement": "growth at 10 µM", "setting": "NCI-H460", "result": 72.1, "unit": "%"},
      {"measurement": "growth at 10 µM", "setting": "SK-MEL-5", "result": 81.8, "unit": "%"},
      {"measurement": "growth at 10 µM", "setting": "UO-31", "result": 61.9, "unit": "%"},
      {"measurement": "growth at 10 µM", "setting": "RXF 393", "result": 77.2, "unit": "%"},
      {"measurement": "Activity", "setting": "[2]", "result": 112, "unit": "%"},
      {"measurement": "growth at 10 µM", "setting": "LOX IMVI", "result": 78.6, "unit": "%"},
      {"measurement": "growth at 10 µM", "setting": "MDA-MB-231", "result": 70.5, "unit": "%"},
      {"measurement": "growth at 10 µM", "setting": "SR", "result": 71.4, "unit": "%"},
      {"measurement": "growth at 10 µM", "setting": "786-0", "result": 80.2, "unit": "%"},
      {"measurement": "Activity", "setting": "[3]", "result": 80, "unit": "%"},
      {"measurement": "growth at 10 µM", "setting": "SF-539", "result": 48, "unit": "%"},
      {"measurement": "growth at 10 µM", "setting": "A498", "result": 75.5, "unit": "%"},
      {"measurement": "Activity", "setting": "[4]", "result": 106, "unit": "%"},
      {"measurement": "growth at 10 µM", "setting": "OVCAR-8", "result": 60.9, "unit": "%"},
      {"measurement": "growth at 10 µM", "setting": "U-251", "result": 63, "unit": "%"},
      {"measurement": "growth at 10 µM", "setting": "SN12C", "result": 78.6, "unit": "%"},
      {"measurement": "Activity", "setting": "[5]", "result": 84.6, "unit": "%"},
      {"measurement": "growth at 10 µM", "setting": "SNB-75", "result": 62.5, "unit": "%"},
      {"measurement": "Activity", "setting": "[6]", "result": 145.5, "unit": "%"},
      {"measurement": "growth at 10 µM", "setting": "HT-29", "result": 78.8, "unit": "%"},
      {"measurement": "growth at 10 µM", "setting": "ACHN", "result": 85.8, "unit": "%"},
      {"measurement": "growth at 10 µM", "setting": "[7]", "result": 61.4, "unit": "%"},
      {"measurement": "growth at 10 µM", "setting": "HOP-92", "result": 85.6, "unit": "%"},
      {"measurement": "growth at 10 µM", "setting": "MCF7", "result": 79.1, "unit": "%"},
      {"measurement": "growth at 10 µM", "setting": "OVCAR-4", "result": 74.9, "unit": "%"},
      {"measurement": "growth at 10 µM", "setting": "HCT-116", "result": 32.5, "unit": "%"},
      {"measurement": "growth at 10 µM", "setting": "MDA-MB-435", "result": 67.7, "unit": "%"},
      {"measurement": "growth at 10 µM", "setting": "Malme-3M", "result": 77.2, "unit": "%"},
      {"measurement": "growth at 10 µM", "setting": "Hs-578T", "result": 62.3, "unit": "%"}
    ]}
  ]
}
